Patent US20170014430A1, “Cycloartenol-Containing Composition” (KAO CORPORATION, priority 2014, published 2017)
Marks after values point to notes of the source that are not given here.

What was measured:
[1] = molecular target: T1, lipase from porcine pancreas (Sus scrofa, UniProt P00591); assay: Inhibitory action against lipase: amount of free fatty acid produced from bile acid micelles (artificial in vivo system); format: biochemical
T1 construct: lipase from porcine pancreas [SIGMA]; purchased SIGMA; host or cells: porcine pancreas (tissue-derived preparation)
T1 sequence (P00591 1-450): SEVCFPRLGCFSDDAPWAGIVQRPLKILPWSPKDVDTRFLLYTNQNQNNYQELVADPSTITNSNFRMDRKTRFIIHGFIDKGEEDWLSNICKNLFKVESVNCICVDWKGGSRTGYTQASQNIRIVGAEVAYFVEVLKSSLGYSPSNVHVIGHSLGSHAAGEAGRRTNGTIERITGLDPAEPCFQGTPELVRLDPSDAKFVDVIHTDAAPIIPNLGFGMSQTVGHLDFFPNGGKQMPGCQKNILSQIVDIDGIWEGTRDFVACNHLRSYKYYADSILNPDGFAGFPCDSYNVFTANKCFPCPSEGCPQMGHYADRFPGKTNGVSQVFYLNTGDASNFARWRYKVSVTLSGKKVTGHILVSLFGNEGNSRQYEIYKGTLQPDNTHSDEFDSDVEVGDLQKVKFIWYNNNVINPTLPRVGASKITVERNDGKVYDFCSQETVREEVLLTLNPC
Protocol: In this example, an emulsification liquid containing bile acid micelles was produced as an artificial in vivo system. In the artificial in vivo system, the inhibitory action of the test samples against the lipolytic activity by lipase in vivo was evaluated by measuring the amount of free fatty acid collected from the bile acid micelles after application of lipase in the presence of the test samples.
10 g of olive oil (Wako Pure Chemical Industries, Ltd.) was added to each test sample (30 mg in terms of CA amount), which was heated at 70° C. in an oven for 20 minutes to be dissolved.
0.92 g of olive oil in which each test sample was dissolved, 40 mg of egg yolk lecithin (Wako Pure Chemical Industries, Ltd.), and 24 mL of the bile acid solution were added to a 50-mL tube, followed by cooling with ice, and thereafter emulsification was performed thereon using an ultrasonic homogenizer. […] Thereafter, 2.5 mL of a 0.1% lipase solution (0.1N TRIS-HCl buffer solution of lipase from porcine pancreas [SIGMA]) was added thereto, which was mixed with stirring using a vortex mixer for 10 seconds, followed by incubation in a water bath at 37° C. for 10 minutes. The tube was moved into an oil bath at 70° C., was subjected to enzyme inactivation for 15 minutes, and thereafter was mixed again with stirring using a vortex mixer to collect 100 μL.
The amount of free fatty acid in the reaction solution was determined using NEFA-C Test wako. That is, 800 μL of a coloring reagent A was added to 100 μL of the sample, which was stirred using a vortex mixer, and thereafter was heated at 37° C. for 10 minutes. After cooling, 1600 μL of a coloring reagent B was added thereto, followed by stirring, and was heated again at 37° C. for 10 minutes. This was subjected to an ultraviolet/visible spectrophotometer to measure an absorbance at 550 nm. Thus, the amount of free fatty acid produced was obtained. Each reaction solution was measured 3 times or 4 times by the same operation.

blood GIP = assay: Inhibitory action against blood GIP increase, intragastric administration test of starch paste sample; format: in vivo, C57BL/6J mice; conditions: Table 6, AUC for 120 minutes, relative value with control administration group taken as 100, 175 μM in terms of CA
Protocol: For experiments, C57BL/6J mice (male, 8 week-old, manufactured by CLEA Japan, Inc.) grouped so that each group has the same body weight (N=16/group) were used and were subjected to the tests.
Starch (waxy corn, Amioca) was dissolved in distilled water in an amount 4 times the amount of the starch and gelatinized (pregelatinized) by autoclaving (at 121° C. under a pressure of 2 atmospheres for 20 minutes). Each of the test samples (Sample Nos. 2 to 4 and 8) shown in Table 4 was emulsified in triolein containing egg yolk lecithin and albumin to obtain an emulsified oil. […]
The starch paste sample containing the test sample was intragastrically administered to a mouse fasted for 20 hours, and part of the blood was collected from the orbital venous plexus over time (before the administration, and at 10, 30, 60, and 120 minutes after the administration). […] The collected blood was subjected to centrifugation, and thereafter the blood plasma was prepared and measured using GIP ELISA kit (EMD Millipore Corporation). The blood GIP amount of each sample after the administration was calculated by measuring the maximum value (Cmax) and the area under the concentration curve (AUC) for 120 minutes. […]

[2] = in vivo; Patent Literatures 9 to 11; cited from earlier work

CC(C)=CCC[C@@H](C)[C@H]1CC[C@@]2(C)[C@@H]3CC[C@H]4C(C)(C)[C@@H](O)CC[C@@]45C[C@@]35CC[C@]12C [Purified product of cycloartenol, cycloartenol]
amount of free fatty acid produced compared to the control / lipase inhibitory activity (in words) ([1]; Example 1): reduced | Amount of free fatty acid produced, Average ([1]; Example 1, test sample 30 mg in terms of CA in 10 g olive oil, lipase 37° C. 10 minutes, NEFA-C Test wako, absorbance 550 nm, control (olive oil alone) 0.376): 0.276 | amount of free fatty acid produced compared with the control / lipase inhibitory activity (in words) ([1]; Example 2): reduced | Amount of free fatty acid produced, Average ([1]; Example 2, same manner as Example 1, control (olive oil alone) 0.296): 0.238 | GIP (AUC) (blood GIP): 81 * | inhibitory activity against GIP increase [2]: exerts inhibitory activities | inhibitory activity against postprandial blood glucose increase [2]: exerts inhibitory activities
